Drawing on patent US7514443B2, “Substituted pyrazolo[1,5-a]pyrimidines as inhibitors of metabotropic glutamate receptors” (Hoffmann-La Roche Inc., priority 2003, dated 2009), this text covers melting point for 25 molecules.

On to `FC(F)(F)c1cc(-c2ccc(Br)cc2)nc2c(-c3ccncc3)cnn12` [Example 4.55, 5-(4-Bromo-phenyl)-3-pyridin-4-yl-7-trifluoromethyl-pyrazolo[1,5-a]pyrimidine], for which the melting point was 289 °C.
As to `Cc1cc(-c2cnn3c(C(F)(F)F)cc(-c4ccc(Cl)c(Cl)c4)nc23)ccn1` [Example 4.32, 5-(3,4-Dichloro-phenyl)-3-(2-methyl-pyridin-4-yl)-7-trifluoromethyl-pyrazolo[1,5-a]pyrimidine], the melting point was 275 °C.
Regarding `Cc1cc(-c2cnn3c(C(F)(F)F)cc(-c4ccc(C(F)(F)F)cc4)nc23)ccn1` [Example 4.33, 5-(4-Trifluoromethyl-phenyl)-3-(2-methyl-pyridin-4-yl)-7-trifluoromethyl-pyrazolo[1,5-a]pyrimidine], the melting point was found to be 243 °C.
As for `CCOc1cc(-c2cc(C(F)(F)F)n3ncc(-c4cc(C)nc(C)c4)c3n2)ccc1C(F)(F)F` [Example 4.48, 3-(2,6-Dimethyl-pyridin-4-yl)-5-(3-ethoxy-4-trifluoromethyl-phenyl)-7-trifluoromethyl-pyrazolo[1,5-a]pyrimidine], the figure is 257 °C; as for `Cc1cccc(-c2cc(C(F)(F)F)n3cnc(C#N)c3n2)c1` [Example 5.9, 2-(3-Methyl-phenyl)-4-trifluoromethyl-imidazo[1,5-a]pyrimidine-8-carbonitrile], 202 °C; as for `Cc1cc(-c2cc(C(F)(F)F)n3ncc(-c4ccncc4)c3n2)ccc1Cl` [Example 4.4, 5-(4-Chloro-3-methyl-phenyl)-3-pyridin-4-yl-7-trifluoromethyl-pyrazolo[1,5-a]pyrimidine], 247 °C.
As for `N#Cc1cnn2c(C(F)(F)F)cc(-c3ccc(F)cc3F)nc12` [Example 1.10, 5-(2,4-Difluoro-phenyl)-7-trifluoromethyl-pyrazolo[1,5-a]pyrimidine-3-carbonitrile], the figure is 149 °C; as for `FC(F)(F)c1cc(-c2ccc(Cl)cc2)nc2c(-c3ccncc3)cnn12` [Example 4.2, 5-(4-Chloro-phenyl)-3-pyridin-4-yl-7-trifluoromethyl-pyrazolo[1,5-a]pyrimidine], 274 °C; as for `Fc1cc(-c2cc(C(F)(F)F)n3cnc(-c4ccncc4)c3n2)ccc1C(F)(F)F` [Example 8.15, 2-(3-Fluoro-4-trifluoromethyl-phenyl)-8-pyridin-4-yl-4-trifluoromethyl-imidazo[1,5-a]pyrimidine], 267 °C.
For `FC(F)(F)c1cc(-c2ccc(Cl)c(Cl)c2)nc2c(-c3ccccn3)cnn12` [Example 4.11, 5-(3,4-Dichloro-phenyl)-3-pyridin-2-yl-7-trifluoromethyl-pyrazolo[1,5-a]pyrimidine], the melting point came to 188 °C.
`Cc1cc(-c2cnn3c(C(F)(F)F)cc(-c4ccc(Br)cc4)nc23)cc(C)n1` [Example 4.57, 5-(4-Bromo-phenyl)-3-(2,6-dimethyl-pyridin-4-yl)-7-trifluoromethyl-pyrazolo[1,5-a]pyrimidine] displayed a melting point of 258 °C.
Regarding `N#Cc1cnn2c(C(F)(F)F)cc(-c3ccc(F)cc3)nc12` [Example 1.9, 5-(4-Fluoro-phenyl)-7-trifluoromethyl-pyrazolo[1,5-a]pyrimidine-3-carbonitrile], the melting point stood at 198 °C.
`Cc1cc(-c2cnn3c(C(F)(F)F)cc(-c4ccc(OCC(F)(F)F)c(C(F)(F)F)c4)nc23)ccn1` [Example 4.46, 5-[4-(2,2,2-Trifluoroethoxy)-3-trifluoromethyl-phenyl]-3-(2-methyl-pyridin-4-yl)-7-trifluoromethyl-pyrazolo[1,5-a]pyrimidine] returned a melting point of 210 °C.
The same measure for `Cc1cc(-c2cnn3c(C(F)(F)F)cc(-c4ccc(C(F)(F)F)c(OCC(F)(F)F)c4)nc23)cc(C)n1` [Example 4.51, 3-(2,6-Dimethyl-pyridin-4-yl)-5-[3-(2,2,2-trifluoro-ethoxy)-4-trifluoromethyl-phenyl]-7-trifluoromethyl-pyrazolo[1,5-a]pyrimidine]: 245 °C; for `FC(F)(F)COc1cc(-c2cc(C(F)(F)F)n3cnc(-c4ccncc4)c3n2)ccc1C(F)(F)F` [Example 8.32, 8-Pyridin-4-yl-2-[3-(2,2,2-trifluoro-ethoxy)-4-trifluoromethyl-phenyl]-4-trifluoromethyl-imidazo[1,5-a]pyrimidine]: 233 °C.
As to `Cc1cc(-c2cnn3c(C(F)(F)F)cc(-c4ccc(C(F)(F)F)c(C(F)(F)F)c4)nc23)ccn1` [Example 4.54, 5-(3,4-Bis-trifluoromethyl-phenyl)-3-(2-methyl-pyridin-4-yl)-7-trifluoromethyl-pyrazolo[1,5-a]pyrimidine], the melting point was 223 °C.
Turning to `Cc1cc(-c2cnn3c(C(F)F)cc(-c4ccc(C(F)(F)F)cc4)nc23)ccn1` [Example 9.2, 7-Difluoromethyl-3-(2-methyl-pyridin-4-yl)-5-(4-trifluoromethyl-phenyl)-pyrazolo[1,5-a]pyrimidine], the melting point was found to be 213 °C.
`FC(F)(F)c1cccc(-c2cc(C(F)(F)F)n3ncc(-c4cccnc4)c3n2)c1` [Example 4.13, 5-(3-Trifluoromethyl-phenyl)-3-pyridin-3-yl-7-trifluoromethyl-pyrazolo[1,5-a]pyrimidine] showed a melting point of 171 °C.
Molecule `FC(F)(F)c1cc(-c2ccc(Cl)cc2)nc2c(-c3cccnc3)cnn12` [Example 4.1, 5-(4-Chloro-phenyl)-3-pyridin-3-yl-7-trifluoromethyl-pyrazolo[1,5-a]pyrimidine] yielded a melting point of 188 °C.
`N#Cc1ncn2c(C(F)(F)F)cc(-c3ccccn3)nc12` [Example 5.25, 2-Pyridin-2-yl-4-trifluoromethyl-imidazo[1,5-a]pyrimidine-8-carbonitrile] yielded a melting point of 205 °C.
In turn, `CCOc1cc(-c2cc(C(F)(F)F)n3cnc(-c4ccncc4)c3n2)ccc1C(F)(F)F` [Example 8.30, 2-(3-Ethoxy-4-trifluoromethyl-phenyl)-8-pyridin-4-yl-4-trifluoromethyl-imidazo[1,5-a]pyrimidine] came in with a melting point of 212 °C.
In turn, `Cc1cc(-c2cnn3c(C(F)(F)F)cc(-c4ccc(C(F)(F)F)c(F)c4)nc23)cc(C)n1` [Example 4.25, 5-(3-Fluoro-4-trifluoromethyl-phenyl)-3-(2,6-dimethyl-pyridin-4-yl)-7-trifluoromethyl-pyrazolo[1,5-a]pyrimidine] came in with a melting point of 245 °C.
The molecule `CCOc1ccc(-c2cc(C(F)(F)F)n3ncc(-c4ccncc4)c3n2)cc1C(F)(F)F` [Example 4.41, 5-(4-Ethoxy-3-trifluoromethyl-phenyl)-3-pyridin-4-yl-7-trifluoromethyl-pyrazolo[1,5-a]pyrimidine] gave a melting point of 233 °C.
In the case of `Cc1cc(-c2cc(C(F)F)n3ncc(-c4ccncc4)c3n2)ccc1C(F)(F)F` [Example 9.3, 7-Difluoromethyl-5-(3-methyl-4-trifluoromethyl-phenyl)-3-pyridin-4-yl-pyrazolo[1,5-a]pyrimidine], the melting point worked out at 236 °C.
`FC(F)(F)c1ccc(-c2cc(C(F)(F)F)n3cnc(-c4ccncc4)c3n2)cc1C(F)(F)F` [Example 8.34, 2-(3,4-Bis-trifluoromethyl-phenyl)-8-pyridin-4-yl-4-trifluoromethyl-imidazo[1,5-a]pyrimidine] gave a melting point of 211 °C.

One may read the melting point as the temperature of the solid-liquid transition.
